Reference: patent US7718705B1, “Methods of using rapid-onset selective serotonin reuptake inhibitors for treating sexual dysfunction” (Eli Lilly and Company, priority 2000, dated 2010)
Where two headings read alike, the source gives them in different places.

How the values were obtained:
[1] = test system: men presenting with premature ejaculation (PE) as defined in the DSM IV; experiment: Ejaculatory latency (stopwatch, intromission to ejaculation) in randomized, double-blind, three way crossover evaluation of prn dapoxetine; assay type: in vivo, human; settings: for Percentage of patients achieving increases of at least one minute in EL: placebo 14%; for Increase of mean ejaculatory latency from baseline: placebo group 24 seconds
Experimental: The results of an interim analysis of a randomized, double-blind, three way crossover evaluation of two prn doses of dapoxetine (20 mg and 40 mg) in the treatment of premature ejaculation (hereinafter referred to as “PE”) are disclosed in tables 8a and 8b. Each patient is assigned to receive 4 to 6 administrations of each of the 3 study doses, in a random order, over 3 periods of not more than 4 weeks each. The interim analysis of the data was conducted following completion of the first treatment period.
The study comprised 155 men, aged 19 to 60, presenting with PE as defined in the DSM IV. All patients were involved in a stable monogamous sexual relationship of at least 6 months duration and reported a history of intravaginal ejaculatory latency (hereinafter referred to as “EL”) of less than 2 minutes in greater than half of their intercourse experiences. History of significant cardiovascular disease or psychiatric disorder, uncontrolled hypertension, erectile dysfunction, and substance abuse were criteria for exclusion.
(§1) During a lead-in period (maximum of 4 weeks), patients were asked to record ejaculatory latency a minimum of 4 times. Latency is defined as the time span, as measured by the patient's partner via a stopwatch, from vaginal intromission to ejaculation. At the completion of the lead-in period, patients were randomized to treatment with either 20 mg or 40 mg dapoxetine or placebo. Study medication was to be ingested 1 to 3 hours prior to a planned intercourse event. The time study drug was taken and time of intercourse were recorded in an event log. Patients were instructed to attempt intercourse at least 4 times over the 4 week treatment period and were issued a sufficient supply of medication to complete 6 attempts at intercourse. The outcome of each attempt (success of intromission and EL) was recorded in the event log initialed by the patient and their partner. Patients returned to the study clinic for a follow-up visit after 4 to 6 attempts at intercourse were completed. At visits 4, 5, and 6 patients were asked to answer the Global Satisfaction Questions and to complete the PEQ.
Of the 155 patients randomized, 145 completed the treatment period. 54 patients were randomized to the placebo group, while 56 and 45 received 20 mg or 40 mg dapoxetine respectively. Although patients were randomly assigned to treatment sequences in blocks of 6, the imbalance in the number of patients randomized to each group was due to the random distribution of the 40 mg assignment to later allocations within the blocks. The intent-to-treat population was comprised of 143 patients, each of whom had baseline and follow-up data for analysis. Analysis of EL was conducted on the 138 patients who had latency data at baseline and at least one post-medication event. The percentage of patients with data sufficient for inclusion in the analysis of EL was lower in the 40 mg group than in either of the other 2 groups. This difference may be attributable to the smaller size of the 40 mg group, such that each patient represents a greater percentage of the whole, rather than being a function of the dose administered. […]

[2] = test system: men presenting with premature ejaculation (PE) as defined in the DSM IV; experiment: Global Satisfaction Question in the crossover evaluation of prn dapoxetine; assay type: in vivo, human
Description: The patient-perceived-benefit of prn dosing method with dapoxetine, or a pharmaceutically acceptable salt thereof, can be determined, for example, through administration of a global satisfaction question, such as:
“How would you complete the following statement?
The new bottle of medication that I received at my previous visit made my premature ejaculation problem:
Measures for “ejaculatory latency” and “number of thrusts prior to ejaculation” should be recorded as the average of the 4-6 events recorded in the event logs for that treatment period. Subjects who ejaculated prior to intromission should have a zero recorded for both “ejaculatory latency” and “number of thrusts prior to ejaculation.” “Measures for Subject and Partner satisfaction scores (global impression)” and “Subject and Partner ejaculatory (or sexual) quality-of-life questionnaire” for each treatment period should be based on the score collected at the visit immediately following each treatment period.
as §1
The results of a final analysis of a randomized, double-blind, three way crossover evaluation of two prn doses of dapoxetine (20 mg and 40 mg) in the treatment of premature ejaculation are disclosed in the following tables. The final analyses of the data was conducted following completion of all 3 treatment periods.

[3] = Plasma concentration profile in volunteers (FIG. 1); assay type: in vivo, human; settings: 20 volunteers, 40 mg dapoxetine at time zero of the 14th day of daily dosing
[4] = test system: patients (premature ejaculation); settings: fluoxetine continuous then prn dosing; cited from earlier work
[5] = test system: patients suffering from premature ejaculation; settings: 26 patients, cited from earlier work
[6] = test system: patients (premature ejaculation); settings: cited from earlier work
[7] = test system: potent men with premature ejaculation; settings: 37 men, 50 mg oral sertraline; cited from earlier work
[8] = final analysis, all patients, 20 mg prn
[9] = final analysis, all patients, 40 mg prn
[10] = patients with baseline less than one minute, 20 mg prn
[11] = patients with baseline less than one minute, 40 mg prn
[12] = patients with baseline less than two minutes, 20 mg prn
[13] = patients with baseline less than two minutes, 40 mg prn
[14] = patients with baseline ≧ one minute, 40 mg prn
[15] = patients with baseline ≧ two minutes, 40 mg prn

With `CN(C)[C@@H](CCOc1cccc2ccccc12)c1ccccc1` [Dapoxetine, (S)-(+)-N,N-Dimethyl-1-phenyl-3-(1-naphthalenyloxy)-propanamine] the “Ejaculatory Latency (LS Mean)” value ([1]; "Moderate" patients, baseline 1.68, 20 mg prn) was 2.64 min, the “Ejaculatory Latency (LS Mean)” value ([1]; "Moderate" patients, baseline 1.68, 40 mg prn) was 2.93 min and the “Change in Latency (LS Mean)” value ([1]; "Moderate" patients, 20 mg prn) was 0.94 min. For the same compound, the “Change in Latency (LS Mean)” value ([1]; "Moderate" patients, 40 mg prn) was 1.27 min, the “Ejaculatory Latency (LS Mean)” value ([1]; "Severe" patients, baseline 1.23, 20 mg prn) was 2.60 min and the “Ejaculatory Latency (LS Mean)” value ([1]; "Severe" patients, baseline 1.23, 40 mg prn) was 3.09 min. The “Change in Latency (LS Mean)” value ([1]; "Severe" patients, 20 mg prn) was 1.42 min, the “Change in Latency (LS Mean)” value ([1]; "Severe" patients, 40 mg prn) was 1.93 min and the “Change in Latency (LS Mean)” value [1, 8] was 1.43 min. For the same compound, the “Ejaculatory Latency (LS Mean)” value [1, 8] was 2.78 min, the “Change in Latency (LS Mean)” value [1, 9] was 1.86 min and the “Ejaculatory Latency (LS Mean)” value [1, 9] was 3.19 min. For the same compound, the “Ejaculatory Latency (LS Mean)” value ([1]; final analysis, patients with baseline less than one minute, 20 mg prn) was 1.2 min, the “Ejaculatory Latency (LS Mean)” value ([1]; final analysis, patients with baseline less than one minute, 40 mg prn) was 1.7 min and the “Treatment of premature ejaculation with the first dose (in words)” value ([1]; first dose administered, no lead-in period (Table 12)) was “can effectively and unexpectedly treat premature ejaculation with the first dose administered to a patient”. The “Ejaculatory latency, Mean ± S.D.” value ([1]; interim analysis, follow-up, first treatment period, 20 mg prn, 50 patients) was 2.3 ± 2.26 min, the “Ejaculatory latency, Mean ± S.D.” value ([1]; interim analysis, follow-up, first treatment period, 40 mg prn, 37 patients) was 2.3 ± 2.19 min and the “Ejaculatory latency, Range” value ([1]; interim analysis, follow-up, 20 mg prn) was 0.1 to 11.4 min. The “Ejaculatory Latency (LS Mean)” value ([1]; interim analysis, follow-up, 20 mg prn, adjusted for baseline and sample size) was 2.41 min, the “Ejaculatory latency, Range” value ([1]; interim analysis, follow-up, 40 mg prn) was 0.0 to 9.8 min and the “Ejaculatory Latency (LS Mean)” value ([1]; interim analysis, follow-up, 40 mg prn, adjusted for baseline and sample size) was 2.52 min. The “Ejaculatory latency, Range” value ([1]; interim analysis, follow-up, 20 & 40 mg combined) was 0.0 to 11.4 min, the “Ejaculatory latency, Mean ± S.D.” value ([1]; interim analysis, follow-up, 20 & 40 mg combined, 87 patients) was 2.3 ± 2.22 min and the “Percentage of patients achieving increases of at least one minute in EL” value ([1]; interim analysis, 20 mg prn) was 22%. The “Increase of mean ejaculatory latency from baseline” value ([1]; interim analysis, 20 mg prn) was “one”, the “Percentage of patients achieving increases of at least one minute in EL” value ([1]; interim analysis, 40 mg prn) was 24% and the “Increase of mean ejaculatory latency from baseline” value ([1]; interim analysis, 40 mg prn) was “one”. The “Change in Latency (LS Mean)” value [1, 10] was 0.6 min, the “Change in Latency (LS Mean)” value [1, 11] was 1.3 min and the “Change in Latency (LS Mean)” value [1, 12] was 1.4 min. The “Ejaculatory Latency (LS Mean)” value [1, 12] was 2.4 min, the “Change in Latency (LS Mean)” value [1, 13] was 1.5 min and the “Ejaculatory Latency (LS Mean)” value [1, 13] was 2.5 min. The “Ejaculatory Latency (LS Mean)” value ([1]; patients with baseline ≧ one minute, baseline 1.90, 40 mg prn) was 4.24 min, the “Change in Latency (LS Mean)” value [1, 14] was 2.40 min and the “Ejaculatory Latency (LS Mean)” value ([1]; patients with baseline ≧ two minutes, baseline 3.19, 40 mg prn) was 6.59 min. For the same compound, the “Change in Latency (LS Mean)” value [1, 15] was 3.43 min, the “Ejaculatory Latency (LS Mean)” value ([1]; recorded after administration of a single dose, 20 mg) was 2.37 ± 0.24 min and the “Ejaculatory Latency (LS Mean)” value ([1]; recorded after administration of a single dose, 40 mg) was 1.98 ± 0.27 min. The “Global Satisfaction: Better/Much Better” value ([2]; "Moderate" patients, 20 mg prn) was 34.4%, the “Global Satisfaction: ≧Slightly Better” value ([2]; "Moderate" patients, 20 mg prn) was 51.6% and the “Global Satisfaction: Better/Much Better” value ([2]; "Moderate" patients, 40 mg prn) was 50%. For the same compound, the “Global Satisfaction: ≧Slightly Better” value ([2]; "Moderate" patients, 40 mg prn) was 66.7%, the “Global Satisfaction: Better/Much Better” value ([2]; "Severe" patients, 20 mg prn) was 17.2% and the “Global Satisfaction: ≧Slightly Better” value ([2]; "Severe" patients, 20 mg prn) was 48.5%. The “Global Satisfaction: Better/Much Better” value ([2]; "Severe" patients, 40 mg prn) was 25.5%, the “Global Satisfaction: ≧Slightly Better” value ([2]; "Severe" patients, 40 mg prn) was 54.1% and the “Global Satisfaction: Better/Much Better” value [2, 10] was 13%. The “Global Satisfaction: ≧Slightly Better” value [2, 10] was 38%, the “Global Satisfaction: Better/Much Better” value [2, 11] was 24% and the “Global Satisfaction: ≧Slightly Better” value [2, 11] was 46%. The “Global Satisfaction: Better/Much Better” value [2, 12] was 23%, the “Global Satisfaction: ≧Slightly Better” value [2, 12] was 50% and the “Global Satisfaction: Better/Much Better” value [2, 13] was 29%. For the same compound, the “Global Satisfaction: ≧Slightly Better” value [2, 13] was 50%, the “Global Satisfaction: Better/Much Better” value [2, 14] was 36.4% and the “Global Satisfaction: ≧Slightly Better” value [2, 14] was 65.0%. For the same compound, the “Global Satisfaction: Better/Much Better” value [2, 15] was 39.1%, the “Global Satisfaction: ≧Slightly Better” value [2, 15] was 65.2% and the “Plasma concentration profile (in words)” value [3] was “rapid-onset to reach peak plasma concentration followed by rapid metabolism (i.e. short half-life)”.
For `CNCCC(Oc1ccc(C(F)(F)F)cc1)c1ccccc1` (stereo not drawn) [fluoxetine], the “Patients initially improved with continuous dosing that lost benefit after switching to prn dosing” value [4] is listed as 100%.
For `Fc1ccc([C@@H]2CCNC[C@H]2COc2ccc3c(c2)OCO3)cc1` [paroxetine], the “Ejaculatory latency (in words)” value ([5]; prn 20 mg paroxetine tablet 3-4 hours prior to intercourse) is listed as “statistically significant increase in ejaculatory latency in the second through fourth weeks of paroxetine treatment but not in the first week”, the “Frequency of intercourse (in words)” value ([5]; prn 20 mg paroxetine) is listed as “significantly increased only after 3 weeks of prn paroxetine therapy” and the “Patients with improved ejaculatory latency” value ([6]; 20 mg prn paroxetine) is listed as 42%. The “Patients initially improved with continuous dosing that lost benefit after switching to prn dosing” value ([6]; paroxetine continuous then prn dosing) was 37%.
For `CN[C@H]1CC[C@@H](c2ccc(Cl)c(Cl)c2)c2ccccc21` [sertraline], the “Conclusion on treatment of premature ejaculation (in words)” value [7] is given as “appeared to be a useful and well tolerated oral treatment for premature ejaculation after 1 to 2 weeks”.
